Test results as given in patent US5359075A, “Quinophthalone compound” (Mitsui Toatsu Chemicals, Incorporated, priority 1991, dated 1994).

Legend:
[1] = maximum absorption wavelength; format: physicochemical; details: for λmax: solvent not given
[2] = solubility of each compound in a solvent; format: physicochemical; details: at 20° C., % on weight
Protocol: For the six compounds (B) to (H) of Examples 1 to 6 and the compounds (I) and (J) for comparison, the solubility of each compound in a solvent was measured.

[3] = Resin coloring suitability test: heat resistance; format: physicochemical; details: 0.02 pts. wt., 300° C./10 min.; for Heat resistance (H), ABS: Acrylonitrile/butadiene/styrene; for Heat resistance (H), PC: Polycarbonate; for Heat resistance (H), PET: Polyethylene glycol terephthalate; for Heat resistance (H), PS: Polystyrene
Protocol: For the compounds (B, C, D, F, G and H), a resin coloring suitability test was conducted.
H: Heat resistance, 300° C./10 min., Gray scale judgement
Heat resistance and bleed resistance: […]
judgement, and the fifth grade or more was denoted by .circleincircle. an
the third to fifth grades by .largecircle..

[4] = Dichroic ratio / liquid crystal display element in liquid crystal mixture E-8; details: liquid crystal E-8
Protocol: Each of the dyestuffs of Examples 12 and 13 was added to 9.8 parts of a liquid crystal mixture of a trade name E-8 made by Merck AG, and the mixture was then heated up to about 60° C. to completely dissolve the dyestuff. After cooling, the solution was poured into a liquid crystal display element, and it was then hermetically sealed.
Each sample was put on a light path of a spectrophotometer, and an absorbance A was measured by applying straight polarized light to the liquid crystal in parallel with the arrangement of the liquid crystal and an absorbance A' was measured by applying straight polarized light to the liquid crystal at a right angle to the arrangement of the liquid crystal. By the use of the thus measured absorbances A and A', a dichroic ratio was calculated in accordance with the following formula: […]
Furthermore, as comparative preparation examples, otherwise the same liquid crystals as mentioned above were prepared from compounds for comparison represented by the following formulae (K) and (L).

SMILES	λmax ([1]; Table 1)	Solubility in Acetone [2]	Solubility in DMF [2]	Solubility in THF [2]	Solubility in Toluene [2]	λmax ([1]; Table 5)	further results
CCC1(COC(=O)C(C)C)COC(c2ccc3c(c2)C(=O)C(c2nc4ccc(C5CCCCC5)cc4cc2O)C3=O)=N1 (stereo not drawn) [Example 19]	–	–	–	–	–	450 nm	–
CCCCCCC1(CC)COC(c2ccc3c(c2)C(=O)C(c2nc4ccccc4cc2O)C3=O)=N1 (stereo not drawn) [Example 17]	–	–	–	–	–	450 nm	–
CCCCCCCCOC(=O)c1ccc2c(c1)C(=O)C(c1nc3ccc(CCCC)cc3cc1O)C2=O (stereo not drawn) [I, reference compound]	–	0.33%	1.20%	0.98%	0.51%	–	dissolution in the liquid crystal [4]: not completely dissolved
CCCCSc1c(O)c(C2C(=O)c3ccccc3C2=O)nc2ccc(C(C)C)cc12 [Example 10]	450 nm	–	–	–	–	–	–
CCCCCCCCOc1ccc(-c2ccc(N3C(=O)c4cc5c(cc4C3=O)C(=O)C(c3nc4ccc(C(C)C)cc4cc3O)C5=O)cc2)cc1 [Example 12]	455 nm	–	–	–	–	–	–
CCCCCCCCN1CCN=C1c1ccc2c(c1)C(=O)C(c1nc3ccccc3c(Sc3ccc(C(C)(C)C)cc3)c1O)C2=O (stereo not drawn) [Example 14]	–	–	–	–	–	450 nm	–
CC(=O)OCC1(COC(C)=O)COC(c2ccc3c(c2)C(=O)C(c2nc4ccc(C(C)C)cc4cc2O)C3=O)=N1 (stereo not drawn) [Example 21]	–	–	–	–	–	450 nm	–
CC(C)c1nnc(-c2ccc3c(c2)C(=O)C(c2nc4ccccc4cc2O)C3=O)o1 (stereo not drawn) [C]	–	3.95%	7.03%	6.55%	4.22%	–	Heat resistance (H), ABS [3]: .largecircle. (the third to fifth grades); Heat resistance (H), PC [3]: .circleincircle. (the fifth grade or more); Heat resistance (H), PET [3]: .largecircle. (the third to fifth grades); Heat resistance (H), PS [3]: .circleincircle. (the fifth grade or more); maximum absorption wavelength in toluene [1]: 450 nm
CC(C)NC(=O)c1cc2c(cc1C(=O)NC(C)C)C(=O)C(c1nc3ccc(C(C)C)cc3cc1O)C2=O [Example 8]	460 nm	–	–	–	–	–	–
CC(=O)OCC1(COC(C)=O)COC(c2ccc3c(c2)C(=O)C(c2nc4ccccc4cc2O)C3=O)=N1 (stereo not drawn) [Example 16]	–	–	–	–	–	450 nm	–
Cc1ccc2oc(-c3ccc(-c4ccc(N5C(=O)c6cc7c(cc6C5=O)C(=O)C(c5nc6ccc(C(C)C)cc6cc5O)C7=O)cc4)cc3)nc2c1 [Example 13]	455 nm	–	–	–	–	–	–
CC1CN=C(c2ccc3c(c2)C(=O)C(c2nc4ccccc4cc2O)C3=O)O1 (stereo not drawn) [B]	–	3.48%	6.91%	6.50%	3.98%	–	Heat resistance (H), ABS [3]: .largecircle. (the third to fifth grades); Heat resistance (H), PC [3]: .circleincircle. (the fifth grade or more); Heat resistance (H), PET [3]: .largecircle. (the third to fifth grades); Heat resistance (H), PS [3]: .circleincircle. (the fifth grade or more); maximum absorption wavelength in toluene [1]: 448 nm

More lines, main results first:

λmax ([1]; Table 1)	Solubility in Acetone [2]	Solubility in DMF [2]	Solubility in THF [2]	Solubility in Toluene [2]	λmax ([1]; Table 5)	SMILES	further results
450 nm	–	–	–	–	–	CCCN(CCC)C(=O)c1ccc2c(c1)C(=O)C(c1nc3ccc(C(C)C)cc3cc1O)C2=O (stereo not drawn) [Example 11]	–
–	1.58%	3.56%	2.28%	1.79%	–	CC(C)c1ccc2nc(C3C(=O)c4ccccc4C3=O)c(O)cc2c1 [D]	Heat resistance (H), ABS [3]: .largecircle. (the third to fifth grades); Heat resistance (H), PC [3]: .circleincircle. (the fifth grade or more); Heat resistance (H), PET [3]: .largecircle. (the third to fifth grades); Heat resistance (H), PS [3]: .circleincircle. (the fifth grade or more); maximum absorption wavelength in toluene [1]: 450 nm
–	3.84%	6.91%	6.50%	4.01%	–	CCC1(CO)COC(c2ccc3c(c2)C(=O)C(c2nc4ccc(C(C)C)cc4cc2O)C3=O)=N1 (stereo not drawn) [G]	Heat resistance (H), ABS [3]: .largecircle. (the third to fifth grades); Heat resistance (H), PC [3]: .circleincircle. (the fifth grade or more); Heat resistance (H), PET [3]: .circleincircle. (the fifth grade or more); Heat resistance (H), PS [3]: .circleincircle. (the fifth grade or more); maximum absorption wavelength in toluene [1]: 450 nm
–	–	–	–	–	450 nm	CC(C)c1ccc2nc(C3C(=O)c4ccc(-c5nnc(C(C)C)s5)cc4C3=O)c(O)cc2c1 (stereo not drawn) [Example 15]	–
–	5.31%	12.64%	10.38%	8.85%	–	CCC1(COC(=O)C(C)C)COC(c2ccc3c(c2)C(=O)C(c2nc4ccc(C(C)C)cc4cc2O)C3=O)=N1 (stereo not drawn) [H]	Heat resistance (H), ABS [3]: .largecircle. (the third to fifth grades); Heat resistance (H), PC [3]: .circleincircle. (the fifth grade or more); Heat resistance (H), PET [3]: .circleincircle. (the fifth grade or more); Heat resistance (H), PS [3]: .circleincircle. (the fifth grade or more); maximum absorption wavelength in toluene [1]: 450 nm
–	0.13%	0.78%	0.34%	0.28%	–	CCCCOC(=O)c1ccc2c(c1)C(=O)C(c1nc3ccc(C)cc3cc1O)C2=O (stereo not drawn) [J, reference compound]	dissolution in the liquid crystal [4]: not completely dissolved
–	7.10%	13.49%	12.63%	10.52%	–	CCCCN(CCCC)C(=O)c1ccc2c(c1)C(=O)C(c1nc3ccc(C(C)C)cc3cc1O)C2=O (stereo not drawn) [F]	Heat resistance (H), ABS [3]: .largecircle. (the third to fifth grades); Heat resistance (H), PC [3]: .circleincircle. (the fifth grade or more); Heat resistance (H), PET [3]: .circleincircle. (the fifth grade or more); Heat resistance (H), PS [3]: .circleincircle. (the fifth grade or more); maximum absorption wavelength in toluene [1]: 450 nm
–	–	–	–	–	450 nm	CCC1(COC(C)=O)COC(c2ccc3c(c2)C(=O)C(c2nc4ccc(C(C)C)cc4cc2O)C3=O)=N1 (stereo not drawn) [Example 20]	–
450 nm	–	–	–	–	–	CCCCNC(=O)c1ccc2c(c1)C(=O)C(c1nc3ccc(C(C)C)cc3cc1O)C2=O (stereo not drawn) [Example 7]	–
450 nm	–	–	–	–	–	CCCCCCNC(=O)c1ccc2c(c1)C(=O)C(c1nc3ccc(C(C)C)cc3c(Br)c1O)C2=O (stereo not drawn) [Example 9]	–
